According to patent publication US5753615A, “Neuropeptides and their use as insecticides” (Queen Mary and Westfield College, priority 1993, dated 1998):
Non-standard residues stand in square brackets, D forms with d. No end group written: not given here. pGlu = O=C1CC[C@@H](C(=O)O)N1

How the values were obtained:
[1] = tested on: corpora allata of the cockroach Diploptera punctata; type: cell-based
Description: Thus, it causes maximum inhibition of JH at a concentration of 1 nM, with a 50% inhibition (ED50) being achieved at 0.1 nM.

[2] = tested on: corpora allata of the cockroach Diploptera punctata; details: given 'in comparison'; known allatostatins of the literature; test system not restated; cited from earlier work

Row | Substance | 50% inhibition (ED50) of JH production [1] [nM] | ED50 (inhibition of JH production), comparison values [2] [nM]
1 | GPPYDFGM-NH2 [Callatostatin 5, Gly-Pro-Pro-Tyr-Asp-Phe-Gly-Met-NH2] | 0.1 | –
2 | [pGlu]VRFRQCYFNPISCF-OH (cysteine pairing not given here) [allatostatin of Manduca sexta] | – | 2
